Values of other authors, collected in patent publication US20160143861A1, “COMPOSITIONS COMPRISING HYDROXYTYROSOL, RESVERATROL, LYCOPENE, FLAVANOLS, AND/OR FLAVONOIDS AND USE THEREOF” (SPECIALTY NUTRITION GROUP, INC., priority 2013, published 2016).

## OCCc1ccc(O)c(O)c1 [Hydroxytyrosol]
  time of peak plasma concentration after ingestion: 5 to 10 min
